Laboratory results published in PubChem BioAssay AID2005 (Sanford-Burnham Center for Chemical Genomics, 2009).
Activity calls are given as the source filed them.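 How the source made its calls: active means plate Z score at or below -3, or inhibition of at least 30% at 20 µM; inactive means the rest.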

Legend:
[1] = test system: F442A EGFP cells, EGFP fluorescence, 16 h; assay: EGFP reporter destabilization counter-screen – F442A EGFP cells, fluorescence, counter-screen for p/CIP destabilizer project, dose response (AID 2005);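 further: cells express EGFP alone from a CMV promoter as a counter screen for p/CIP-EGFP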
[2] = as above; settings: F442A EGFP cells, EGFP fluorescence, 16 h, stronger effect = higher value

SMILES: Cc1ccccc1NC1=C/C(=N\S(=O)(=O)c2cccs2)c2ccccc2C1=O
- IC50 [1]: 13 µM
- inhibition ([2]; EGFP decrease, at 10 µM): 66.7%

SMILES: Nc1ccc2c(c1)C(=O)C(=O)c1ccccc1-2
- IC50 [1]: 30.8 µM
- inhibition ([2]; EGFP decrease, at 10 µM): 3.5%

SMILES: CC1CCN(S(=O)(=O)c2ccc3c(c2)C(=NO)c2cc(S(=O)(=O)N4CCC(C)CC4)ccc2-3)CC1
- IC50 [1]: 7.46 µM
- inhibition ([2]; EGFP decrease, at 10 µM): 68.9%

SMILES: Cc1ccc(NC2=C/C(=N\S(=O)(=O)c3cccs3)c3ccccc3C2=O)c(C)c1
- IC50 [1]: 16 µM
- inhibition ([2]; EGFP decrease, at 10 µM): 60%

SMILES: O=C1C(Cl)=C(NCCN2CCCCC2)C(=O)c2ccccc21
- IC50 [1]: 20.4 µM
- inhibition ([2]; EGFP decrease, at 10 µM): 16.1%

SMILES: COc1ccc(NC(=O)/C(Cl)=C(/Cl)S(=O)Cc2ccc(Cl)cc2)cn1 (stereo not drawn)
- IC50 [1]: 49.9 µM (inactive)
- inhibition ([2]; EGFP decrease, at 10 µM): -168%

SMILES: Cc1oc2c(c1C(=O)NCc1cccnc1)C(=O)c1ccccc1C2=O
- IC50 [1]: 5.99 µM
- inhibition ([2]; EGFP decrease, at 10 µM): 72%

SMILES: O=C1C(Nc2ccc(O)cc2)=C/C(=N/S(=O)(=O)c2cccs2)c2ccccc21
- IC50 [1]: 5.18 µM
- inhibition ([2]; EGFP decrease, at 10 µM): 66%

SMILES: CCOC(=O)c1c(C)[nH]c2c1-c1ccccc1C(=O)C2=O
- IC50 [1]: 8.64 µM
- inhibition ([2]; EGFP decrease, at 10 µM): 23.3%

SMILES: CC(C)(C)c1cc[n+](C2=C([O-])c3ccccc3C(=O)/C2=N\S(=O)(=O)c2cccs2)cc1
- IC50 [1]: 37.9 µM
- inhibition ([2]; EGFP decrease, at 10 µM): -4.5%

SMILES: O=C1C(Nc2ccccc2)=C/C(=N/S(=O)(=O)c2cccs2)c2ccccc21
- IC50 [1]: 10.4 µM
- inhibition ([2]; EGFP decrease, at 10 µM): 62.1%

SMILES: COc1ccc(CS(=O)/C(Cl)=C(/Cl)C(=O)Nc2ccc(OC)nc2)cc1 (stereo not drawn)
- IC50 [1]: 48 µM (inactive)
- inhibition ([2]; EGFP decrease, at 10 µM): -232%

SMILES: C=CCCC(=O)N1CCCC(C(=O)c2cccc(OC)c2)C1 (stereo not drawn)
- inhibition ([2]; EGFP decrease, at 10 µM): 20.8%
- inhibition ([2]; at 20 µM): 2.3% (inactive)

SMILES: NC(=O)c1nsc(C(=O)N(CC(=O)NC2CCCC2)c2ccc(F)c(Cl)c2)c1N
- inhibition ([2]; EGFP decrease, at 10 µM): -4.6%
- inhibition ([2]; at 20 µM): 15.2% (inactive)

SMILES: CCCc1nnc(NC(=O)C2CCN(C(=O)C3CC(=O)N(c4ccc(C)cc4)C3)CC2)s1 (stereo not drawn)
- inhibition ([2]; EGFP decrease, at 10 µM): 13.9%
- inhibition ([2]; at 20 µM): 14.4% (inactive)

SMILES: CC(=O)c1c(N2CCN(Cc3ccc4c(c3)OCO4)CC2)nc(=S)n(-c2ccccc2)c1C
- inhibition ([2]; EGFP decrease, at 10 µM): 7.3%
- inhibition ([2]; at 20 µM): 23.7% (inactive)

SMILES: COc1ccccc1CN1CC(C(=O)NCc2cc(F)cc(C(F)(F)F)c2)CCC1=O (stereo not drawn)
- inhibition ([2]; EGFP decrease, at 10 µM): 4.7%
- inhibition ([2]; at 20 µM): 12.5% (inactive)

SMILES: Nc1ncnc2c1ncn2[C@H]1C[C@H](O)[C@@H](CO)O1
- inhibition ([2]; EGFP decrease, at 10 µM): 1.2%
- inhibition ([2]; at 20 µM): 26.2% (inactive)

SMILES: CN=Cc1sc2ccccc2c1O
- inhibition ([2]; EGFP decrease, at 10 µM): 26.9%
- inhibition ([2]; at 20 µM): 29.7% (inactive)

SMILES: CCN1CCN(c2cc(C)c3cc(NC(=S)N4CC(C)CC(C)C4)ccc3n2)CC1 (stereo not drawn)
- inhibition ([2]; EGFP decrease, at 10 µM): 28.8%
- inhibition ([2]; at 20 µM): 12.7% (inactive)

SMILES: C/C(N)=C(/C#N)C(=O)CSc1nnnn1-c1ccc(C)cc1C
- inhibition ([2]; EGFP decrease, at 10 µM): 18%
- inhibition ([2]; at 20 µM): 3.2% (inactive)

SMILES: CC(Oc1ccc(Cl)cc1)C(=O)NCC1CCCO1 (stereo not drawn)
- inhibition ([2]; EGFP decrease, at 10 µM): 20.8%
- inhibition ([2]; at 20 µM): -7.4% (inactive)

SMILES: O=C(Nc1ccc(N2CCOCC2)c(Cl)c1)c1ccc(-n2cnnc2)cc1
- inhibition ([2]; EGFP decrease, at 10 µM): 15.2%
- inhibition ([2]; at 20 µM): 4.8% (inactive)

SMILES: CC(=O)Nc1ccc(NC2=C(Cl)C(=O)c3ccccc3C2=O)cc1
- inhibition ([2]; EGFP decrease, at 10 µM): 3%
- inhibition ([2]; at 20 µM): 0.6% (inactive)

SMILES: O[C@@H](CNC[C@H](O)c1ccccc1)c1ccccc1
- inhibition ([2]; EGFP decrease, at 10 µM): 28%
- inhibition ([2]; at 20 µM): -10.9% (inactive)

SMILES: COc1ccc(CN(CC(=O)NCc2ccc(F)cc2)C(=O)CCC(=O)Nc2ccccn2)cc1
- inhibition ([2]; EGFP decrease, at 10 µM): -14.2%
- inhibition ([2]; at 20 µM): 16.1% (inactive)

SMILES: CCS(=O)(=O)N1CCN(c2nc(-c3ccccc3)cs2)CC1
- inhibition ([2]; EGFP decrease, at 10 µM): 13.7%
- inhibition ([2]; at 20 µM): 15.1% (inactive)

SMILES: CC1(C)C(=O)Nc2ccccc2N1C(=O)COc1ncnc2c(Cl)cc(Cl)cc12
- inhibition ([2]; EGFP decrease, at 10 µM): 18.4%
- inhibition ([2]; at 20 µM): 17.9% (inactive)

SMILES: Cc1cccc(C)c1NC(=O)c1ccccc1C(=O)O
- inhibition ([2]; EGFP decrease, at 10 µM): 18.1%
- inhibition ([2]; at 20 µM): 20.4% (inactive)

SMILES: Cc1ccc2c(COC(=O)CNC(=O)c3ccccc3)cc(=O)oc2c1
- inhibition ([2]; EGFP decrease, at 10 µM): 5.9%
- inhibition ([2]; at 20 µM): -2.9% (inactive)

SMILES: Cn1c(C(=O)NCc2cccnc2)cc2sc(Cl)cc21
- inhibition ([2]; EGFP decrease, at 10 µM): 28.8%
- inhibition ([2]; at 20 µM): 32.9%

SMILES: CCOC(=O)C(OC(=O)c1sc(=S)n(C)c1C)C(C)=O (stereo not drawn)
- inhibition ([2]; EGFP decrease, at 10 µM): 27.1%
- inhibition ([2]; at 20 µM): 35.7%

SMILES: O=C(Cc1ccccc1)NC(=S)Nc1cccc(C(F)(F)F)c1
- inhibition ([2]; EGFP decrease, at 10 µM): 14.2%
- inhibition ([2]; at 20 µM): 16.8% (inactive)

SMILES: CC(C)CC(=O)Nc1ncnc2c1C(=O)CC(C)(C)C2
- inhibition ([2]; EGFP decrease, at 10 µM): 11.5%
- inhibition ([2]; at 20 µM): 12.2% (inactive)

SMILES: O=C(NC(=S)NCc1ccccc1)c1ccc(Br)o1
- inhibition ([2]; EGFP decrease, at 10 µM): 23.8%
- inhibition ([2]; at 20 µM): 19.8% (inactive)

SMILES: CC(O)CNc1nc2c(c(=O)n(C)c(=O)n2C)n1Cc1cccc(Br)c1 (stereo not drawn)
- inhibition ([2]; EGFP decrease, at 10 µM): 24.8%
- inhibition ([2]; at 20 µM): 12.7% (inactive)

SMILES: CCOC(=O)N1CCN(S(=O)(=O)c2cc(OCC)ccc2OCC)CC1
- inhibition ([2]; EGFP decrease, at 10 µM): -19.2%
- inhibition ([2]; at 20 µM): 5.4% (inactive)

SMILES: Cc1cc(NC(=O)CSCC(=O)OCc2nnc(-c3ccccc3)o2)no1
- inhibition ([2]; EGFP decrease, at 10 µM): -7.9%
- inhibition ([2]; at 20 µM): -12.8% (inactive)

SMILES: Cc1cccc(-c2nnc3n2N=C(c2ccccc2Br)CS3)c1
- inhibition ([2]; EGFP decrease, at 10 µM): 18.2%
- inhibition ([2]; at 20 µM): 10.8% (inactive)

SMILES: COc1ccc(CC(=O)OC(C)C(=O)c2ccc(C)cc2)cc1 (stereo not drawn)
- inhibition ([2]; EGFP decrease, at 10 µM): 32%
- inhibition ([2]; at 20 µM): 25.4% (inactive)

SMILES: COCC(=O)N1CCCN(c2nc3c(C)cccc3cc2C#N)CC1
- inhibition ([2]; EGFP decrease, at 10 µM): 7.6%
- inhibition ([2]; at 20 µM): -0.8% (inactive)

SMILES: CSCCC(CO)NC(=O)OCc1ccccc1 (stereo not drawn)
- inhibition ([2]; EGFP decrease, at 10 µM): 10.8%
- inhibition ([2]; at 20 µM): -23.3% (inactive)

SMILES: CCCC(=O)Nn1cnc2c(c1=O)C1(CCCCC1)Cc1ccccc1-2
- inhibition ([2]; EGFP decrease, at 10 µM): -8.7%
- inhibition ([2]; at 20 µM): 4% (inactive)

SMILES: O=C(c1ccccc1F)N(Cc1cccnc1)Cc1cc2cc3c(cc2[nH]c1=O)OCCO3
- inhibition ([2]; EGFP decrease, at 10 µM): 4.2%
- inhibition ([2]; at 20 µM): -4.2% (inactive)

SMILES: CCCCCCn1c(=O)c(C(=O)Nc2cccc(C)n2)c(O)c2ccccc21
- inhibition ([2]; EGFP decrease, at 10 µM): 26.7%
- inhibition ([2]; at 20 µM): 20.6% (inactive)

SMILES: O=C(CC12CC3CC(CC(C3)C1)C2)NCCN1CCOCC1
- inhibition ([2]; EGFP decrease, at 10 µM): 9.3%
- inhibition ([2]; at 20 µM): 25.4% (inactive)

SMILES: CCN1CCN(CCNC(=O)Nc2ccc([N+](=O)[O-])cc2)CC1
- inhibition ([2]; EGFP decrease, at 10 µM): -0.7%
- inhibition ([2]; at 20 µM): 6.6% (inactive)

SMILES: CCN(C(=O)COC(=O)c1cc(NS(=O)(=O)c2ccc(Cl)c([N+](=O)[O-])c2)ccc1O)C1CCCCC1
- inhibition ([2]; EGFP decrease, at 10 µM): 13.6%
- inhibition ([2]; at 20 µM): 6.6% (inactive)

SMILES: COc1ccc2c(C)cc3nncn3c2c1
- inhibition ([2]; EGFP decrease, at 10 µM): -2.7%
- inhibition ([2]; at 20 µM): 14.7% (inactive)

SMILES: Cn1c(O)c(C=NC2CCCCCC2)c(=O)[nH]c1=S
- inhibition ([2]; EGFP decrease, at 10 µM): 0.3%
- inhibition ([2]; at 20 µM): 7.6% (inactive)

SMILES: COc1ccc(CNCCCSc2ncccn2)c(OC)c1
- inhibition ([2]; EGFP decrease, at 10 µM): 11.1%
- inhibition ([2]; at 20 µM): 16.3% (inactive)

SMILES: CCC1=C(OC(=O)N(CC)CC)N2C(=O)OC(=NCC3CC3)[C@]2(Cc2ccccc2)[C@H]2C1=CC[C@H]1C(=O)N(CC(=O)OC)C(=O)[C@H]12
- inhibition ([2]; EGFP decrease, at 10 µM): 0.3%
- inhibition ([2]; at 20 µM): 13.8% (inactive)

SMILES: CCOC(=O)N=Nc1c2ccccc2c2nc3no[nH]c3nc12
- IC50 [1]: 35.5 µM
- inhibition ([2]; EGFP decrease, at 10 µM): -20.6%

SMILES: Cn1c(NCc2ccco2)nc2c1c(=O)n(Cc1ccc(Cl)cc1)c(=O)n2C
- inhibition ([2]; EGFP decrease, at 10 µM): 17.1%
- inhibition ([2]; at 20 µM): 20.5% (inactive)

SMILES: COc1ccccc1CNC(=O)CCCC(=O)n1ncc2cc(C)ccc21
- inhibition ([2]; EGFP decrease, at 10 µM): -25.7%
- inhibition ([2]; at 20 µM): 20.2% (inactive)

SMILES: Cc1nn(C)c(Cl)c1S(=O)(=O)N[C@@H](c1ccccc1)[C@]1(C)C[C@H]1[C@@H](C)C(=O)Nc1ccc2ccccc2c1
- inhibition ([2]; EGFP decrease, at 10 µM): 34.6%
- inhibition ([2]; at 20 µM): 11.3% (inactive)

SMILES: CCOc1ccc(N(CC(=O)Nc2cccc(Br)c2)S(C)(=O)=O)cc1
- inhibition ([2]; EGFP decrease, at 10 µM): 36.5%
- inhibition ([2]; at 20 µM): 12.4% (inactive)

SMILES: Cc1ccc(S(=O)(=O)Oc2ccc(/C=N/NC(=O)c3nn(C)cc3Cl)cc2)cc1
- inhibition ([2]; EGFP decrease, at 10 µM): 17.3%
- inhibition ([2]; at 20 µM): 17.2% (inactive)

SMILES: CC(C)(C)c1cc(Cc2ccccc2)[nH]n1
- inhibition ([2]; EGFP decrease, at 10 µM): -3.7%
- inhibition ([2]; at 20 µM): 35.1%
